Assay results published in article PMC12892976, “Alkylation-based optimization of antifungal FPPS inhibitors yields a potent, broad-spectrum lipophilic zoledronate derivative” (mBio, 2025).

Legend:
Rhizopus oryzae [1] = experiment: checkerboard drug interaction (FICI, MICc); assay type: cell-based;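 note: simplified diagonal checkerboard screen pairing antifungals with FPPS inhibitors, FICI calculated under the Loewe additivity model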
Method: (§1) Drug interactions between antifungals and FPPS inhibitors were investigated using a simplified checkerboard diagonal screening method ([45]). […] FICIs were determined according to the Loewe additivity model ([17]).

[2] = test system: Cryptococcus bacillisporus; experiment: MIC broth microdilution (CLSI); assay type: cell-based; details: Cryptococcus bacillisporus NIH179
Method: (§2) Antifungal susceptibility was determined by broth microdilution according to the CLSI guidelines described in M27-Ed4 ([16]).

Aspergillus felis = experiment: MIC broth microdilution (CLSI); assay type: cell-based; details: Aspergillus felis IHE87256683D6
Method: as §2

Microsporum canis = experiment: MIC broth microdilution (CLSI); details: Microsporum canis R-232
Method: as §2

Aspergillus parafelis = experiment: checkerboard drug interaction (FICI, MICc);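 note: simplified diagonal checkerboard screen pairing antifungals with FPPS inhibitors, FICI calculated under the Loewe additivity model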
Method: as §1

[3] = test system: Aspergillus frankstonensis; experiment: MIC broth microdilution (CLSI); assay type: cell-based; details: Aspergillus frankstonensis DTO 341-F3
Method: as §2

Aspergillus terreus = experiment: MIC broth microdilution (CLSI); assay type: cell-based; details: Aspergillus terreus 75-16-089-2500
Method: as §2

Candida tropicalis [4] = experiment: checkerboard drug interaction (FICI, MICc); assay type: cell-based;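 note: simplified diagonal checkerboard screen of antifungal plus FPPS inhibitor combinations, with FICI computed by the Loewe additivity model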
Method: as §1

Cryptococcus gattii [5] = experiment: checkerboard drug interaction (FICI, MICc); assay type: cell-based;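 note: simplified diagonal checkerboard screen pairing antifungals with FPPS inhibitors, FICI computed under the Loewe additivity model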
Method: as §1

Aspergillus lentulus [6] = experiment: MIC broth microdilution (CLSI); assay type: cell-based; details: Aspergillus lentulus DTO 341-G7
Method: as §2

Candida tropicalis [7] = experiment: MIC broth microdilution (CLSI); assay type: cell-based; details: Candida tropicalis M230640
Method: as §2

Cryptococcus gattii [8] = experiment: MIC broth microdilution (CLSI); assay type: cell-based; details: Cryptococcus gattii PNG27
Method: as §2

Rhizopus oryzae [9] = experiment: MIC broth microdilution (CLSI); assay type: cell-based; details: Rhizopus oryzae 04-14-364-1703
Method: as §2

Aspergillus lentulus [10] = experiment: checkerboard drug interaction (FICI, MICc); assay type: cell-based;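 note: simplified diagonal checkerboard screen pairing antifungals with FPPS inhibitors, with the interaction index calculated under the Loewe additivity model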
Method: as §1

Nannizzia nana [11] = experiment: MIC broth microdilution (CLSI); assay type: cell-based; details: Nannizzia nana R-133
Method: as §2

Nannizzia nana [12] = experiment: checkerboard drug interaction (FICI, MICc); assay type: cell-based;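 note: simplified diagonal checkerboard screen pairing antifungals with FPPS inhibitors, FICI calculated under the Loewe additivity model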
Method: as §1

Candida parapsilosis = experiment: checkerboard drug interaction (FICI, MICc); assay type: cell-based;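 note: simplified diagonal checkerboard screen pairing antifungals with FPPS inhibitors, with FICI computed under the Loewe additivity model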
Method: as §1

[13] = test system: Cryptococcus bacillisporus; experiment: checkerboard drug interaction (FICI, MICc); assay type: cell-based;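 note: interaction of antifungals with FPPS inhibitors assessed by a simplified diagonal checkerboard screen, with FICI computed under the Loewe additivity model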
Method: as §1

Trichophyton tonsurans = experiment: MIC broth microdilution (CLSI); details: Trichophyton tonsurans R-168
Method: as §2

Pichia kudriavzevii = experiment: MIC broth microdilution (CLSI); assay type: cell-based; details: Pichia kudriavzavii ATCC 6258
Method: Antifungal susceptibility was determined by broth microdilution according to the CLSI guidelines described in M27-Ed4 ([16]). […] MFC was determined by back-plating drug-treated cultures from MIC broths onto SDA plates. The MFC was defined as the lowest concentration from which no colonies could be cultured.

Paraphyton cookei = experiment: MIC broth microdilution (CLSI); assay type: cell-based; details: Paraphyton cookei R-639
Method: as §2

Lomentospora prolificans = experiment: MIC broth microdilution (CLSI); assay type: cell-based; details: Lomentospora prolificans 80-16-101-2445
Method: as §2

Aspergillus niger = experiment: MIC broth microdilution (CLSI); assay type: cell-based; details: Aspergillus niger 111
Method: as §2

**Q.** What does the source list for `CCCCCCCCCCn1cc[n+](CC(O)(P(=O)(O)O)P(=O)(O)O)c1` [10-ZOL, Decyl-zoledronate]?
**A.** FICI (Rhizopus oryzae [1]; 5FC:10-ZOL): ≥4; FICI (Rhizopus oryzae [1]; CAS:10-ZOL): ≥4; FICI (Rhizopus oryzae [1]; VOR:10-ZOL): 1; bisphosphonate MICc (Rhizopus oryzae [1]; with 5FC): 2; bisphosphonate MICc (Rhizopus oryzae [1]; with AMB): 0.25; bisphosphonate MICc (Rhizopus oryzae [1]; with CAS): 0.5; bisphosphonate MICc (Rhizopus oryzae [1]; with FLC): 2; bisphosphonate MICc (Rhizopus oryzae [1]; with ITR): 2; bisphosphonate MICc (Rhizopus oryzae [1]; with KET): 2; bisphosphonate MICc (Rhizopus oryzae [1]; with VOR): 2; MIC / MEC [2]: 2 µg/mL; MIC / MEC (Aspergillus felis): 2 µg/mL; MIC / MEC (Microsporum canis): 1 µg/mL; FICI (Aspergillus parafelis; 5FC:10-ZOL): ≥4; FICI (Aspergillus parafelis; CAS:10-ZOL): ≥4; FICI (Aspergillus parafelis; FLC:10-ZOL): 0.52; bisphosphonate MICc (Aspergillus parafelis; with 5FC): 2; bisphosphonate MICc (Aspergillus parafelis; with AMB): 2; bisphosphonate MICc (Aspergillus parafelis; with CAS): 1; bisphosphonate MICc (Aspergillus parafelis; with FLC): 2; bisphosphonate MICc (Aspergillus parafelis; with ITR): 4; bisphosphonate MICc (Aspergillus parafelis; with KET): 1; bisphosphonate MICc (Aspergillus parafelis; with VOR): 2; MIC / MEC [3]: 1 µg/mL; MIC / MEC (Aspergillus terreus): 0.5 µg/mL; FICI (Candida tropicalis [4]; 5FC:10-ZOL): 1.5; FICI (Candida tropicalis [4]; CAS:10-ZOL): ≥4; FICI (Candida tropicalis [4]; VOR:10-ZOL): 0.5; bisphosphonate MICc (Candida tropicalis [4]; with 5FC): 1; bisphosphonate MICc (Candida tropicalis [4]; with AMB): 0.125; bisphosphonate MICc (Candida tropicalis [4]; with CAS): 1; bisphosphonate MICc (Candida tropicalis [4]; with FLC): 1; bisphosphonate MICc (Candida tropicalis [4]; with ITR): 0.125; bisphosphonate MICc (Candida tropicalis [4]; with KET): 0.25; bisphosphonate MICc (Candida tropicalis [4]; with VOR): 0.5; FICI (Cryptococcus gattii [5]; 5FC:10-ZOL): 1; FICI (Cryptococcus gattii [5]; CAS:10-ZOL): 0.5; FICI (Cryptococcus gattii [5]; FLC:10-ZOL): 1.5; FICI (Cryptococcus gattii [5]; KET:10-ZOL): 0.5; FICI (Cryptococcus gattii [5]; VOR:10-ZOL): 0.8; bisphosphonate MICc (Cryptococcus gattii [5]; with 5FC): 0.25; bisphosphonate MICc (Cryptococcus gattii [5]; with AMB): 0.125; bisphosphonate MICc (Cryptococcus gattii [5]; with CAS): 0.125; bisphosphonate MICc (Cryptococcus gattii [5]; with FLC): 0.5; bisphosphonate MICc (Cryptococcus gattii [5]; with ITR): 0.125; bisphosphonate MICc (Cryptococcus gattii [5]; with KET): 0.125; bisphosphonate MICc (Cryptococcus gattii [5]; with VOR): 0.125; MIC / MEC (Aspergillus lentulus [6]): 2 µg/mL; MIC / MEC (Candida tropicalis [7]): 2 µg/mL; MIC / MEC (Cryptococcus gattii [8]): 0.5 µg/mL; MIC / MEC (Rhizopus oryzae [9]): 4 µg/mL; FICI (Aspergillus lentulus [10]; 5FC:10-ZOL): ≥4; FICI (Aspergillus lentulus [10]; CAS:10-ZOL): 2; FICI (Aspergillus lentulus [10]; FLC:10-ZOL): 1.02; bisphosphonate MICc (Aspergillus lentulus [10]; with 5FC): 1; bisphosphonate MICc (Aspergillus lentulus [10]; with AMB): 2; bisphosphonate MICc (Aspergillus lentulus [10]; with CAS): 2; bisphosphonate MICc (Aspergillus lentulus [10]; with FLC): 2; bisphosphonate MICc (Aspergillus lentulus [10]; with ITR): 1; bisphosphonate MICc (Aspergillus lentulus [10]; with KET): 1; bisphosphonate MICc (Aspergillus lentulus [10]; with VOR): 1; MIC / MEC (Nannizzia nana [11]): 1 µg/mL; FICI (Nannizzia nana [12]; 5FC:10-ZOL): 2; FICI (Nannizzia nana [12]; AMB:10-ZOL): 2.25; FICI (Nannizzia nana [12]; CAS:10-ZOL): 2.17; FICI (Nannizzia nana [12]; FLC:10-ZOL): 1.5; FICI (Nannizzia nana [12]; ITR:10-ZOL): 2; FICI (Nannizzia nana [12]; VOR:10-ZOL): 1.17; bisphosphonate MICc (Nannizzia nana [12]; with 5FC): 1; bisphosphonate MICc (Nannizzia nana [12]; with AMB): 0.25; bisphosphonate MICc (Nannizzia nana [12]; with CAS): 0.25; bisphosphonate MICc (Nannizzia nana [12]; with FLC): 0.5; bisphosphonate MICc (Nannizzia nana [12]; with ITR): 1; bisphosphonate MICc (Nannizzia nana [12]; with KET): 0.25; bisphosphonate MICc (Nannizzia nana [12]; with VOR): 0.125; FICI (Candida parapsilosis; CAS:10-ZOL): 0.5; bisphosphonate MICc (Candida parapsilosis; with 5FC): 1; bisphosphonate MICc (Candida parapsilosis; with AMB): 0.125; bisphosphonate MICc (Candida parapsilosis; with CAS): 0.25; bisphosphonate MICc (Candida parapsilosis; with FLC): 0.25; bisphosphonate MICc (Candida parapsilosis; with ITR): 0.125; bisphosphonate MICc (Candida parapsilosis; with KET): 0.25; bisphosphonate MICc (Candida parapsilosis; with VOR): 0.25; FICI ([13]; ITR:10-ZOL): 0.61; bisphosphonate MICc ([13]; with 5FC): 1; bisphosphonate MICc ([13]; with AMB): 0.125; bisphosphonate MICc ([13]; with CAS): 1; bisphosphonate MICc ([13]; with FLC): 0.125; bisphosphonate MICc ([13]; with ITR): 0.125; bisphosphonate MICc ([13]; with KET): 0.125; bisphosphonate MICc ([13]; with VOR): 0.125; MIC / MEC (Trichophyton tonsurans): 1 µg/mL; MIC / MEC (Pichia kudriavzevii): 4 µg/mL; MIC / MEC (Paraphyton cookei): 0.5 µg/mL; MIC / MEC (Lomentospora prolificans): 2 µg/mL; MIC / MEC (Aspergillus niger): 4 µg/mL
